From ChEMBL document CHEMBL1151484, “Preparation and anti-HIV activity of N-3 amino substituted thymidine nucleoside analogs” (Bioorg Med Chem Lett, 1992) come the findings set out here.

The subject of series [1] is CCRF-CEM. As to the kind of experiment: In vitro anti -HIV activity of compound determined against the LAV Bru infected CEM cells; Highly cytotoxic at low dose. It is filed as functional, Homo sapiens.
The test system of series [2] is CCRF-CEM. The series can be described thus: In vitro anti -HIV activity of compound determined against the LAV Bru strain infected CEM cells at dose up to 100 uM. The format is functional, Homo sapiens.
Series [3] in a line: Tested for bone marrow cell toxicity expressed as burst forming unit for erythrocyte at a compound concentration of 30 mM in experiment-1. The format is cell-based. The note with it: human.
Series [4] is described as follows: Tested for bone marrow cell toxicity expressed as burst forming unit for erythrocyte at a compound concentration of 30 mM in experiment-2. It is filed as cell-based. The note with it: human.
Series [5] in a line: Tested for bone marrow cell toxicity expressed as burst forming unit for erythrocyte at a compound concentration of 3 mM in experiment-1. The format is cell-based. The note with it: human, 3000 µM.
Series [6] can be described thus: Tested for bone marrow cell toxicity expressed as burst forming unit for erythrocyte at a compound concentration of 3 mM in experiment-2. The format is cell-based. The note with it: human, 3000 µM.
The nature of series [7]: Tested for bone marrow cell toxicity expressed as burst forming unit for erythrocyte at a compound concentration of 0.3 mM in experiment-2. It is filed as cell-based. To be noted: human, 300 µM.
A short description of series [8]: Tested for bone marrow cell toxicity expressed as burst forming unit for erythrocyte at a compound concentration of 100 mM in experiment-1. The format is cell-based. To be noted: human.
A short description of series [9]: Tested for bone marrow cell toxicity expressed as burst forming unit for erythrocyte at a compound concentration of 10 mM in experiment-1. To be noted: human. The format is cell-based.
Series [10] is described as follows: Tested for bone marrow cell toxicity expressed as burst forming unit for erythrocyte at a compound concentration of 10 mM in experiment-2. The format is cell-based. To be noted: human.
Series [11] can be described thus: Tested for bone marrow cell toxicity expressed as burst forming unit for erythrocyte at a compound concentration of 1 mM in experiment-1. It is filed as cell-based. The note with it: human, 1000 µM.
A short description of series [12]: Tested for bone marrow cell toxicity expressed as burst forming unit for erythrocyte at a compound concentration of 1 mM in experiment-2. The format is cell-based. The note with it: human, 1000 µM.
Series [13] in a line: Tested for bone marrow cell toxicity expressed as colony forming unit of granulocyte -macrophage at a compound concentration of 0.3 mM in experiment-2. It is filed as cell-based. The note with it: human, 300 µM.
The nature of series [14]: Tested for bone marrow cell toxicity expressed as colony forming unit of granulocyte -macrophage at a compound concentration of 100 mM in experiment-1. It is filed as cell-based. The note with it: human.
Series [15] is described as follows: Tested for bone marrow cell toxicity expressed as colony forming unit of granulocyte -macrophage at a compound concentration of 10 mM in experiment-1. It is filed as cell-based. To be noted: human.
Series [16] can be described thus: Tested for bone marrow cell toxicity expressed as colony forming unit of granulocyte -macrophage at a compound concentration of 10 mM in experiment-2. The format is cell-based. To be noted: human.
Series [17] is described as follows: Tested for bone marrow cell toxicity expressed as colony forming unit of granulocyte -macrophage at a compound concentration of 1 mM in experiment-1. To be noted: human, 1000 µM. It is filed as cell-based.
A short description of series [18]: Tested for bone marrow cell toxicity expressed as colony forming unit of granulocyte -macrophage at a compound concentration of 1 mM in experiment-2. The format is cell-based. To be noted: human, 1000 µM.
The nature of series [19]: Tested for bone marrow cell toxicity expressed as colony forming unit of granulocyte -macrophage at a compound concentration of 30 mM in experiment-2. To be noted: human. It is filed as cell-based.
Series [20] in a line: Tested for bone marrow cell toxicity expressed as colony forming unit of granulocyte -macrophage at a compound concentration of 3 mM in experiment-1. The note with it: human, 3000 µM. The format is cell-based.
A short description of series [21]: Tested for bone marrow cell toxicity expressed as colony forming unit of granulocyte -macrophage at a compound concentration of 3 mM in experiment-2. The format is cell-based. To be noted: human, 3000 µM.
Series [22] relates to Mus musculus. The series can be described thus: Effect of compound on Friend Complex Murine Leukemia Virus (F-MuLV) induced splenomegaly, expressed as percent inhibition at a dose of 12 mg/kg. The format is functional.
For series [23], the system named is Mus musculus. As to the kind of experiment: Effect of compound on Friend Complex Murine Leukemia Virus (F-MuLV) induced splenomegaly, expressed as percent inhibition at a dose of 40 mg/kg. The format is functional.
For series [24], the system named is Mus musculus. The series can be described thus: Effect of compound on Friend Complex Murine Leukemia Virus (F-MuLV) induced splenomegaly, expressed as percent inhibition at a dose of 4 mg/kg. It is filed as functional.
The test system of series [25] is Mus musculus. The series can be described thus: Effect of compound on Friend Complex Murine Leukemia Virus (F-MuLV) induced splenomegaly, spleen weights at a dose of 12 mg/kg. It is filed as functional.
Series [26] deals with Mus musculus. As to the kind of experiment: Effect of compound on Friend Complex Murine Leukemia Virus (F-MuLV) induced splenomegaly, spleen weights at a dose of 40 mg/kg. It is filed as functional.
Series [27] deals with Mus musculus. As to the kind of experiment: Effect of compound on Friend Complex Murine Leukemia Virus (F-MuLV) induced splenomegaly, spleen weights at a dose of 4 mg/kg. The format is functional.
Series [28] in a line: Tested for bone marrow cell toxicity expressed as burst forming unit for erythrocyte at a compound concentration of 36/30 mM in experiment-1. It is filed as cell-based. To be noted: human.
Series [29] is described as follows: Tested for bone marrow cell toxicity expressed as burst forming unit for erythrocyte at a compound concentration of 36/30 mM in experiment-2. The format is cell-based. To be noted: human.
Series [30] in a line: Tested for bone marrow cell toxicity expressed as burst forming unit for erythrocyte at a compound concentration of 360 mM in experiment-1. The format is cell-based. The note with it: human.
Series [31] is described as follows: Tested for bone marrow cell toxicity expressed as burst forming unit for erythrocyte at a compound concentration of 0.036 mM in experiment-1. It is filed as cell-based. The note with it: human, 36 µM.
Series [32] in a line: Tested for bone marrow cell toxicity expressed as burst forming unit for erythrocyte at a compound concentration of 0.036 mM in experiment-2. It is filed as cell-based. The note with it: human, 36 µM.
Series [33] is described as follows: Tested for bone marrow cell toxicity expressed as burst forming unit for erythrocyte at a compound concentration of 0.36 mM in experiment-1. The note with it: human, 360 µM. The format is cell-based.
A short description of series [34]: Tested for bone marrow cell toxicity expressed as burst forming unit for erythrocyte at a compound concentration of 100 mM in experiment-2. It is filed as cell-based. The note with it: human.
Series [35] in a line: Tested for bone marrow cell toxicity expressed as colony forming unit of granulocyte -macrophage at a compound concentration of 0.036 mM in experiment-1. The format is cell-based. To be noted: human, 36 µM.
A short description of series [36]: Tested for bone marrow cell toxicity expressed as colony forming unit of granulocyte -macrophage at a compound concentration of 0.36 mM in experiment-1. It is filed as cell-based. To be noted: human, 360 µM.
Series [37] can be described thus: Tested for bone marrow cell toxicity expressed as burst forming unit for erythrocyte at a compound concentration of 3.6/3 mM in experiment-1. The note with it: human. It is filed as cell-based.
A short description of series [38]: Tested for bone marrow cell toxicity expressed as burst forming unit for erythrocyte at a compound concentration of 3.6/3 mM in experiment-2. To be noted: human. The format is cell-based.
The nature of series [39]: Tested for bone marrow cell toxicity expressed as colony forming unit of granulocyte -macrophage at a compound concentration of 100 mM in experiment-2. It is filed as cell-based. To be noted: human.
The nature of series [40]: Tested for bone marrow cell toxicity expressed as colony forming unit of granulocyte -macrophage at a compound concentration of 3.6/30 mM in experiment-1. It is filed as cell-based. To be noted: human.
A short description of series [41]: Tested for bone marrow cell toxicity expressed as colony forming unit of granulocyte -macrophage at a compound concentration of 3.6/30 mM in experiment-2. It is filed as cell-based. To be noted: human.
Series [42] is described as follows: Tested for bone marrow cell toxicity expressed as colony forming unit of granulocyte -macrophage at a compound concentration of 300 mM in experiment-1. The note with it: human. It is filed as cell-based.
Series [43] in a line: Tested for bone marrow cell toxicity expressed as colony forming unit of granulocyte -macrophage at a compound concentration of 36/30 mM in experiment-1. The format is cell-based. The note with it: human.
The nature of series [44]: Tested for bone marrow cell toxicity expressed as colony forming unit of granulocyte -macrophage at a compound concentration of 36/30 mM in experiment-2. It is filed as cell-based. The note with it: human.
Series [45] can be described thus: Tested for bone marrow cell toxicity expressed as colony forming unit of granulocyte -macrophage at a compound concentration of 360 mM in experiment-1. It is filed as cell-based. The note with it: human.

SMILES strings stand for the structures.

As for `Cc1cn([C@H]2C[C@H](F)[C@@H](CO)O2)c(=O)[nH]c1=O` [ALOVUDINE], the Activity in [1] came to 0.1 µM.

On to `Cc1cn(C2C=CC(CO)O2)c(=O)n(N)c1=O` (stereo unspecified), for which, in series [2], the Activity came to 40 µM.

What is called inhibition in vivo is the change of the read-out against control, counted positive when it falls. Low readings indicate little suppression, high ones strong suppression. As for `Cc1cn([C@H]2C[C@H](N=[N+]=[N-])[C@@H](CO)O2)c(=O)[nH]c1=O` [ZIDOVUDINE], the BFU in series [3] is on record as 46; in [4], 59; in [5] it was 88; in series [6], 79; in [7], 143; in [8], 4. Also, the BFU was found to be 76 in series [9], 79 in [10], 120 in series [11] and 132 in series [12]. Moreover, the CFU came out at 10.7 in [13]; 1 in series [14]; 4.3 in [15]; 1 in [16]; 33.4 in [17]; 4.7 in series [18]. In addition, the CFU in series [19] was found to be 0; in [20], 18.7; in [21] it was 4.5. Besides, in series [22], 12 mg/kg produced 50% inhibition in vivo. Also, the inhibition in vivo at 40 mg/kg in series [23] is 78%. Also, in [24], testing at 4 mg/kg gave an inhibition in vivo of 46%. Also, the Spleen weight in [25] was 669 mg; in series [26] it was 357 mg; in series [27], 706 mg.

For the compound `Cc1cn(C2CC(F)C(CO)O2)c(=O)n(N)c1=O` (stereo unspecified), the Activity in series [1] is 0.1 µM.

Consider `Cc1cn(C2CC(N=[N+]=[N-])C(CO)O2)c(=O)n(N)c1=O` (stereo unspecified), for which the BFU is recorded as 98 in [28]; 198 in [29]; 111 in series [30]; 94 in series [31]; 10 in [32]; 142 in series [33]. The BFU in series [34] is on record as 158; in series [10] it was 170; in series [12], 249; in series [37], 140; in series [38], 218. Besides, the CFU turned out to be 48.3 in series [35]; 31.3 in series [36]; 9.3 in series [39]; 10 in series [16]; 12.3 in series [18]; 31.3 in series [40]. The CFU in [41] was determined as 14; in [42], 0.3; in series [43], 28.3; in series [44], 11.3; in series [45] it was 0.7. The same compound returned an inhibition in vivo at 12 mg/kg in series [22] of 46%. In addition, the inhibition in vivo at 40 mg/kg in [23] turned out to be 55%. This compound also returned an inhibition in vivo at 4 mg/kg in [24] of 28%. Also, the Spleen weight was found to be 715 mg in series [25], 607 mg in series [26] and 907 mg in series [27].
